Values belong to the molecule of their own block, whether it stands above or below them. Calls of active or inactive are those of the source. The rule behind the calls is not given here.
What was measured:
MDA-MB-231 [1] = assay: Antimigratory activity in human MDA-MB-231 cells assessed as inhibition of cell motility after 24 hrs by microscopic analysis; type: functional, cell-based; conditions: MDA-MB-231, 24 h
MDA-MB-231 [2] = assay: Antimigratory activity in human MDA-MB-231 cells assessed as wound diameter at 5 uM measured after 24 hrs by microscopic analysis; type: functional, cell-based
Chorioallantoic membrane = assay: Antiangiogenic activity in Leghorn chicken fertilized egg chorioallantoic membrane assessed as reduction in number of blood vessels at 4 ug measured after 4 days by microscopic analysis; type: functional, tissue-based; conditions: Gallus gallus
MCF7 [3] = assay: Antiinvasive activity in human MCF7 cells assessed as reduction in 10% FBS-induced cell invasion at 10 uM by crystal violet staining based matrigel assay relative to control; type: functional
MDA-MB-468 [4] = assay: Induction of morphological changes in human MDA-MB-468 cells assessed as mesenchymal-epithelial transition at 10 uM by inverted microscopic analysis; type: functional, cell-based
[5] = Selectivity index, ratio of LD50 for E6/E7 immortalized human HNME cells to IC50 for human MCF7 cells
MDA-MB-231 [6] = assay: Antiproliferative activity against human MDA-MB-231 cells assessed as inhibition of cell growth measured after 48 hrs by microplate reader analysis; type: functional, cell-based; conditions: MDA-MB-231, 48 h
[7] = Selectivity index, ratio of LD50 for E6/E7 immortalized human HNME cells to IC50 for human MDA-MB-231 cells
MDA-MB-231 [8] = assay: Induction of morphological changes in human MDA-MB-231 cells assessed as mesenchymal-epithelial transition at 10 uM by inverted microscopic analysis; type: functional, cell-based
MCF7 [9] = assay: Antiproliferative activity against human MCF7 cells assessed as inhibition of cell growth measured after 48 hrs by microplate reader analysis; type: functional, cell-based; conditions: MCF7, 48 h
MDA-MB-468 [10] = assay: Antiproliferative activity against human MDA-MB-468 cells assessed as inhibition of cell growth measured after 48 hrs by microplate reader analysis; type: functional, cell-based; conditions: MDA-MB-468, 48 h
MDA-MB-231 [11] = assay: Cell cycle arrest in human MDA-MB-231 cells assessed as accumulation at S phase at 10 uM measured after 48 hrs by propidium iodide staining-based flow cytometric analysis relative to control; type: functional
MDA-MB-231 [12] = assay: Antiinvasive activity in human MDA-MB-231 cells assessed as reduction in 10% FBS-induced cell invasion at 10 uM by crystal violet staining based matrigel assay relative to control; type: functional; set-up: scale not given: the % may be the effect or the level left
MCF7 [13] = assay: Growth inhibition in human MCF7 cells at 10 uM after 48 hrs by MTT assay; type: functional, cell-based
MDA-MB-231 [14] = assay: Inhibition of anchorage-independent colony formation in human MDA-MB-231 cells at 5 uM measured upto 21 days by soft agar colony formation assay; type: functional, cell-based
MCF7 [15] = assay: Inhibition of anchorage-independent colony formation in human MCF7 cells at 5 uM measured upto 21 days by soft agar colony formation assay; type: functional, cell-based
MDA-MB-231 [16] = assay: Growth inhibition in human MDA-MB-231 cells at 10 uM after 48 hrs by MTT assay; type: functional, cell-based
MCF7 [17] = assay: Induction of morphological changes in human MCF7 cells assessed as mesenchymal-epithelial transition at 10 uM by inverted microscopic analysis; type: functional, cell-based
MDA-MB-468 [18] = assay: Cell cycle arrest in human MDA-MB-468 cells assessed as accumulation at S phase at 10 uM measured after 48 hrs by propidium iodide staining-based flow cytometric analysis relative to control; type: functional
MDA-MB-468 [19] = assay: Antiinvasive activity in human MDA-MB-468 cells assessed as reduction in 10% FBS-induced cell invasion at 10 uM by crystal violet staining based matrigel assay relative to control; type: functional
[20] = Cytotoxicity against E6/E7 immortalized human HNME cells assessed as inhibition of cell growth measured after 48 hrs by microplate reader analysis; type: cell-based; conditions: read-out: LD50
MDA-MB-468 [21] = assay: Inhibition of anchorage-independent colony formation in human MDA-MB-468 cells at 5 uM measured upto 21 days by soft agar colony formation assay; type: functional, cell-based
[22] = Selectivity index, ratio of LD50 for E6/E7 immortalized human HNME cells to IC50 for human MDA-MB-468 cells

SMILES: COc1ccccc1C(=O)/C=C/c1ccc(N(CCCl)CCCl)cc1
- IC50 (MDA-MB-231 [1]): 2.86 µM
- Activity (MDA-MB-231 [2]): Active

- IC50 (MDA-MB-231 [1]): 4.8 µM
SMILES: CSc1ccc(C(=O)/C=C/c2ccc(N3CCOCC3)cc2)cc1
- Activity (MDA-MB-231 [2]): Active
- Activity (Chorioallantoic membrane): Active

SMILES: CS(=O)(=O)c1ccc(C(=O)/C=C/c2ccc(N(CCCl)CCCl)cc2)cc1
- Activity (MCF7 [3]): Active
- Activity (MDA-MB-468 [4]): Active
- Ratio LD50/IC50 [5]: 2.08
- IC50 (MDA-MB-231 [1]): 6.14 µM
- IC50 (MDA-MB-231 [6]): 7.44 µM
- Ratio LD50/IC50 [7]: 3.95
- Activity (MDA-MB-231 [8]): Active
- Activity (MDA-MB-231 [2]): Active
- IC50 (MCF7 [9]): 14.1 µM
- IC50 (MDA-MB-468 [10]): 13.3 µM
- Activity (MDA-MB-231 [11]): 28.7%
- Activity (Chorioallantoic membrane): Active
- Activity (MDA-MB-231 [12]): 80%
- growth inhibition (GI) (MCF7 [13]): Active
- inhibition (MDA-MB-231 [14]): Active
- colony formation inhibition (activity call) (MCF7 [15]): Active
- growth inhibition (GI) (MDA-MB-231 [16]): Active
- Activity (MCF7 [17]): Active
- Activity (MDA-MB-468 [18]): 46.8%
- Activity (MDA-MB-468 [19]): Active
- CC50 at 48 h [20]: 29.4 µM
- colony formation inhibition (active/inactive) (MDA-MB-468 [21]): Active
- Ratio LD50/IC50 [22]: 2.21

- IC50 (MDA-MB-231 [1]): 2.01 µM
SMILES: CC(=O)O[C@H]1C(=O)[C@@]2(C)[C@H]([C@H](OC(=O)c3ccccc3)[C@]3(O)C[C@H](OC(=O)[C@H](O)[C@@H](NC(=O)c4ccccc4)c4ccccc4)C(C)=C1C3(C)C)[C@]1(OC(C)=O)CO[C@@H]1C[C@@H]2O [PACLITAXEL]
- Activity (MDA-MB-231 [2]): Active
- inhibition (MDA-MB-231 [14]): Active
- colony formation inhibition (activity call) (MCF7 [15]): Active
- colony formation inhibition (active/inactive) (MDA-MB-468 [21]): Active

Reference: ChEMBL document CHEMBL4334533, “Design, synthesis, and validation of novel nitrogen-based chalcone analogs against triple negative breast cancer” (Eur J Med Chem, 2020)
